Data set [1] in a line: Upregulation of IFN-gamma secretion in human CD4+ve Th cells cocultured with DC cells incubated for 120 hrs by ELISA. It counts as functional.
Data set [2] can be described thus: Partition coefficient, logD of compound in 1-octanol and phosphate buffer at pH 7.4 incubated for 1 hr under shaking condition by HPLC analysis. It counts as physicochemical. The conditions noted are these: 1-octanol/phosphate buffer, pH 7.4.
Data set [3] deals with T1, Programmed cell death protein 1/Programmed cell death 1 ligand 1 (Homo sapiens, UniProt Q9NZQ7). In words: Inhibition of human PD-1/PD-L1 interaction overexpressed in human HEK293T cells by flow cytometry analysis. The format is cell-based.
Data set [4] in a line: Observed AUC infinity in CD-1 mouse at 5 mg/kg, ip measured upto 24 hrs by UPLC analysis. It counts as ADME, organism-based. Also noted: dose 5 mg/kg, time < 24 hrs, route ip. The conditions noted are these: in vivo.
Data set [5] in a line: Tmax in CD-1 mouse at 5 mg/kg, ip measured upto 24 hrs by UPLC analysis. To be noted: in vivo. The format is ADME, organism-based.
Data set [6] is described as follows: Toxicity in C57BL/6 mouse implanted with mouse B16-F10 cells assessed as weight loss at 25 mg/kg, ip qd administered for 6 days measured after 7 days relative to control. To be noted: in vivo, 168 h, time 7 day. It counts as organism-based.
Data set [7] is described as follows: Cmax in CD-1 mouse at 5 mg/kg, ip measured upto 24 hrs by UPLC analysis. It counts as ADME, organism-based. Details: dose 5 mg/kg, time < 24 hrs, route ip. To be noted: in vivo.
Data set [8] deals with CT26. The data set is described as follows: Antitumor activity against mouse CT26 cells xenografted Balb/c mouse assessed as granzyme B+ CD8+ T cell count at 25 mg/kg, ip qd administered for 10 days measured every 2 days for 12 days (reference value: 4.31 +/- 2.35%). The format is functional. The conditions noted are these: time 12 day.
A short description of data set [9]: AUClast in CD-1 mouse at 5 mg/kg, ip measured upto 24 hrs by UPLC analysis. The format is ADME, organism-based. Also noted: dose 5 mg/kg, time < 24 hrs, route ip. To be noted: in vivo.
The nature of data set [10]: Half life in CD-1 mouse at 5 mg/kg, iv measured upto 24 hrs by UPLC analysis. The conditions noted are these: in vivo. It counts as ADME, organism-based.
Data set [11] in a line: Toxicity in C57BL/6 mouse implanted with mouse B16-F10 cells assessed as weight loss at 5 mg/kg, it qd administered for 6 days measured after 7 days relative to control. The conditions noted are these: in vivo, other, 168 h, time 7 day. The format is organism-based.
Data set [12] has as its system B16-F10. The data set is described as follows: Antitumor activity against mouse B16-F10 cells implanted in C57BL/6 mouse assessed as tumor growth inhibition at 25 mg/kg, ip qd for 6 days and measured once a day for 7 days relative to control. It counts as functional. The conditions noted are these: B16-F10, 168 h, time 7 day, read-out: TGI.
Data set [13] can be described thus: AUClast in CD-1 mouse at 5 mg/kg, iv measured upto 24 hrs by UPLC analysis. Also noted: dose 5 mg/kg, time < 24 hrs, route iv. The format is ADME, organism-based. The conditions noted are these: in vivo.
Data set [14] can be described thus: Observed MRT infinity in CD-1 mouse at 5 mg/kg, iv measured upto 24 hrs by UPLC analysis. The format is ADME, organism-based. The conditions noted are these: in vivo.
Data set [15] concerns B16-F10. The data set is described as follows: Antitumor activity against mouse B16-F10 cells implanted in C57BL/6 mouse assessed as tumor growth inhibition at 5 mg/kg, it qd for 6 days and measured once a day for 7 days relative to control. The format is functional. The conditions noted are these: B16-F10, 168 h, time 7 day, read-out: TGI.
Data set [16] relates to B16-F10. The data set is described as follows: Antitumor activity against mouse B16-F10 cells implanted in C57BL/6 mouse assessed as tumor growth inhibition at 100 mg/kg, po qd for 6 days and measured once a day for 7 days relative to control. It counts as functional. The conditions noted are these: B16-F10, 168 h, time 7 day, read-out: TGI.
Data set [17] deals with CT26. In words: Antitumor activity against mouse CT26 cells xenografted Balb/c mouse assessed as increase CD3+ CD8+ T cell count at 25 mg/kg, ip qd administered for 10 days measured every 2 days for 12 days (reference value: 5.77 +/- 0.32%). The format is functional. The conditions noted are these: time 12 day.
A short description of data set [18]: Cmax in CD-1 mouse at 5 mg/kg, iv measured upto 24 hrs by UPLC analysis. The format is ADME, organism-based. Details: dose 5 mg/kg, time < 24 hrs, route iv. To be noted: in vivo.
Data set [19] has as its system CT26. The data set is described as follows: Antitumor activity against mouse CT26 cells implanted Balb/c mouse assessed as increase CD4+ cell count at 25 mg/kg, ip qd administered for 10 days measured every 2 days for 12 days (reference value: 13.74 +/- 0.51%). The format is functional. The conditions noted are these: time 12 day.
Data set [20] in a line: Toxicity in C57BL/6 mouse implanted with mouse B16-F10 cells assessed as weight loss at 100 mg/kg, po qd administered for 6 days measured after 7 days relative to control. It counts as organism-based. To be noted: in vivo, 168 h, time 7 day.
For data set [21], the system named is CT26. The data set is described as follows: Antitumor activity against mouse CT26 cells implanted in Balb/c mouse assessed as tumor growth inhibition at 25 mg/kg, ip qd administered for 10 days measured every 2 days for 12 days relative to control. The format is functional. To be noted: CT26, 288 h, time 12 day, read-out: TGI.
The test system of data set [22] is Jurkat. The data set is described as follows: Cytotoxicity against human Jurkat T cells assessed as cell growth inhibition upto 30 uM incubated for 48 hrs by MTT assay. It counts as toxicity, cell-based. (In general: Formazan colour is commonly taken as a measure of viable cells.)
The nature of data set [23]: Toxicity in BALB/c mouse implanted with mouse CT26 cells assessed as weight loss at 25 mg/kg, ip qd administered for 10 days measured every 2 days for 12 days relative to control. It counts as organism-based. To be noted: in vivo, 288 h, time 12 day.
Data set [24] in a line: Observed AUC infinity in CD-1 mouse at 5 mg/kg, iv measured upto 24 hrs by UPLC analysis. The format is ADME, organism-based. Details: dose 5 mg/kg, time < 24 hrs, route iv. To be noted: mouse, in vivo, 24 h.
Data set [25] is described as follows: Half life in CD-1 mouse at 5 mg/kg, ip measured upto 24 hrs by UPLC analysis. The format is ADME, organism-based. To be noted: in vivo.
The nature of data set [26]: Observed MRT infinity in CD-1 mouse at 5 mg/kg, ip measured upto 24 hrs by UPLC analysis. The format is ADME, organism-based. The conditions noted are these: in vivo.
A short description of data set [27]: Tmax in CD-1 mouse at 5 mg/kg, iv measured upto 24 hrs by UPLC analysis. To be noted: in vivo. The format is ADME, organism-based.
Data set [28] concerns the target T1, Programmed cell death protein 1/Programmed cell death 1 ligand 1. The data set is described as follows: Inhibition of PD-1/His-tagged PD-L1 (unknown origin) protein-protein interaction incubated for 90 mins by AlphaLISA. It counts as protein-complex assay. (In general: In Alpha technology, singlet oxygen from a donor bead excites a nearby acceptor bead.)
The test system of data set [29] is Jurkat. The data set is described as follows: Cytotoxicity against human Jurkat cells assessed as cell growth inhibition incubated for 48 hrs by MTT assay. The format is functional, cell-based.
Data set [30] deals with MC-38. In words: Cytotoxicity against mouse MC38 cells assessed as cell death at 10 uM for 48 hrs by MTT assay. To be noted: mc-38, 48 h. The format is toxicity, cell-based.
The test system of data set [31] is RKO. In words: Cytotoxicity against human RKO cells over expressing human PD-L1 at above 10 uM. The format is toxicity, cell-based.
In data set [32] the target is Programmed cell death 1 ligand 1 (Homo sapiens) (UniProt Q9NZQ7). In words: Induction of human PD-L1 degradation expressed in MC38 cells at 0.1 to 10 uM cocultured for 72 hrs by Western blotting analysis. It counts as cell-based. To be noted: dose 0.1-10 µM. On the technique in general: In western blotting, separated proteins are transferred to a membrane and probed.

The target in data set [33] is Programmed cell death protein 1/Programmed cell death 1 ligand 1 (Homo sapiens) (UniProt Q15116+Q9NZQ7). To be noted: dose 300.0 nM, time 15.0 min.
Data set [34] can be described thus: Cytotoxicity against human Jurkat T cells assessed as cell viability at 10 uM incubated for 48 hrs by MTT assay. To be noted: read-out: Activity. It counts as toxicity, cell-based.

Each structure is given as a SMILES string. The source made the active and inactive calls.

Here are results for 7 compounds from ChEMBL document CHEMBL5338801, “Carbohydrate Strengthens the Immunotherapeutic Effect of Small-Molecule PD-L1 Inhibitors” (J Med Chem, 2023).

What is called logD is the decadic logarithm of the distribution of all forms, ionised or not, between an organic phase and buffer at a given pH. The low end stands for a more hydrophilic compound, the high end for a more lipophilic compound. Usually IC50 stands for the concentration needed to halve the response being measured. What is called AUC(0-inf) is the area under the concentration-time curve extrapolated to infinity. Read a high AUC(0-inf) as high exposure. In general, Tmax refers to the time at which the peak concentration occurs. The term Cmax denotes the highest concentration seen after dosing. What is called AUC(0-t) is exposure summed from dosing to a finite time, without extrapolation to infinity. The term half-life denotes the time needed for the level to fall by half in the phase considered. Read a high half-life as slow loss. As usually defined, the MRT inf is a mean duration of stay, worked out from the concentration-time curve. Usually AUC stands for concentration integrated over time. As usually defined, the inhibition is how much of the control response was suppressed. A high value points to strong suppression.

T1 sequence (Q15116 whole entry): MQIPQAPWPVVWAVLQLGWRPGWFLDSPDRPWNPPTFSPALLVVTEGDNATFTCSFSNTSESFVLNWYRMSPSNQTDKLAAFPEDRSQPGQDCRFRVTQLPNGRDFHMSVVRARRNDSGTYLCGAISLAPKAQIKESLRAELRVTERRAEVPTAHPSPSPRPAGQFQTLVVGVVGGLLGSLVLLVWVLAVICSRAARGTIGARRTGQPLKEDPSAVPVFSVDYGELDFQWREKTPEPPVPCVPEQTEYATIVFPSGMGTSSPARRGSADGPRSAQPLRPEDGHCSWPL
T1 sequence (Q9NZQ7 whole entry): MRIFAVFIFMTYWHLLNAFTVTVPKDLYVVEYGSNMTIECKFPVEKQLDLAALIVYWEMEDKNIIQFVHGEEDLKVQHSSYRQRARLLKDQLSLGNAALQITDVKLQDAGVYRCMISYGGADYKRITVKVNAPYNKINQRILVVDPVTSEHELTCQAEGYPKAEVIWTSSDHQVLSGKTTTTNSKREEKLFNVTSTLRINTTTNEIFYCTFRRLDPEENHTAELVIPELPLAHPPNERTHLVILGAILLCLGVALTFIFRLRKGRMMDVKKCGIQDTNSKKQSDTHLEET
Programmed cell death 1 ligand 1 (Homo sapiens), sequence (Q9NZQ7 whole entry): as above

Regarding `COc1cc(OCc2cccc(-c3ccccc3)c2C)cc(OC)c1CNCCO[C@H]1O[C@H](CO)[C@@H](O)[C@H](O)[C@@H]1O`, the “fold change (FC)” value in data set [1] came to 6.72. Moreover, the pH-dependent lipophilicity (logD) at 1 h in [2] amounted to 1.78. In addition, in [3], the IC50 was 0.0608 µM. The total exposure AUC(0-inf) in data set [4] was determined as 2.99 µg·h/mL. The Tmax in [5] and in data set [27] was 0.58 h throughout. Besides, the Activity result is given as “Non-Toxic” in data set [6]; 7.19% in data set [8]; “Non-Toxic” in [11]; 8.67% in [17]; 18.4% in data set [19]; “Non-Toxic” in data set [20]. Moreover, the Activity entry in [22] and in [23] was “Non-Toxic” in each case. Also, the Cmax in [7] amounted to 1.63 µg/mL; in data set [18], 0.928 µg/mL. In addition, the values for the AUC(0-t) at 24 h in data set [9] and in [13] were 2.92 µg·h/mL and 1.09 µg·h/mL, respectively. The half-life in data set [10] was 3.78 h; in [25] it was 5.83 h. In addition, the inhibition in vivo at 25 mg/kg in [12] was 41.1%; in data set [21], 67.2%. Also, the MRT inf turned out to be 1.5 h in [14] and 1.9 h in data set [26]. For the same compound, the inhibition in vivo at 5 mg/kg in data set [15] stood at 41.1%. In addition, in [16], the inhibition in vivo at 100 mg/kg turned out to be 41.1%. The same compound registered an AUC in data set [24] of 1.11 µg·h/mL.

The compound `Cc1c(COc2cc(OCc3cncc(C#N)c3)c(CN(CCCN(C)C)CCS(=O)(=O)O)cc2Cl)cccc1-c1ccc2c(c1)OCCO2` yielded an IC50 in data set [28] of 0.0235 µM.

In [2], `COc1cc(OCc2cccc(-c3ccccc3)c2C)cc(OC)c1CN[C@H](C)CO` showed a logD at 1 h of 3.25. In [29], the IC50 is 2.8 µM. Further, the Activity result in [30] and in data set [31] was “Toxic” each time.

With `COc1cc(OCc2cccc(-c3ccccc3)c2C)cc(OC)c1CNCCO[C@@H]1O[C@H](CO)[C@@H](O)[C@H](O)[C@H]1O`, in [32], the result was inactive.

For `Cc1c(COc2ccc(Cl)c(CNCCO)c2)cccc1-c1ccccc1`, in data set [29], the concentration for half-maximal inhibition (IC50) turned out to be 12.4 µM. In addition, in data set [33], the inhibition was 36.7%.

In data set [2], `COc1nc(OCc2cccc(-c3ccccc3)c2C)ccc1CNCCO` returned a logD at 1 h of 3.23. The half-maximal inhibitory concentration (IC50) in [29] worked out at 2.8 µM. Also, the viability at 48 h, 10 µM in [34] was 0%. The compound also returned an inhibition in data set [33] of 94.5%.

Take `Cc1c(COc2ccc(CNCCO)cc2F)cccc1-c1ccccc1`: the half-maximal inhibitory concentration (IC50) in data set [29] stood at 5.4 µM. The compound also yielded an inhibition in data set [33] of 57.1%.
